Tests used:
Type in all cases: in vivo
Setaria viridis [1] = test: Post-emergence herbicidal action against SETVI; details: 80 g/ha, visual assessment about 3 weeks after treatment
Summary of the method: (§1)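 Percent herbicidal action is rated by eye about 3 weeks after treatment against untreated controls, where 100% means dead plants and 0% means like controls. Plants in sandy loam are sprayed on green parts at the one-leaf stage with aqueous WP or EC preparations at 600 to 800 l/ha plus 0.2% wetting agent.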

Stellaria media [2] = test: Pre-emergence herbicidal action against STEME
Summary of the method: (§2)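 Seeds sown in sandy loam, soil-covered; compound sprayed on soil surface pre-emergence. Application: WP/EC, 600–800 l/ha, 0.2% wetting agent. Readout: visual % damage at 3 weeks.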

Polygonum convolvulus [3] = test: Pre-emergence herbicidal action against POLCO
Summary of the method: as §2

Pharbitis purpurea [4] = test: Pre-emergence herbicidal action against PHBPU; details: 320 g/ha; visual score after 3 weeks vs untreated controls
Summary of the method: as §2

Cyperus esculentus [5] = test: Pre-emergence herbicidal action against CYPES; details: visual score after 3 weeks vs untreated controls
Summary of the method: as §2

Veronica persica [6] = test: Post-emergence herbicidal action against VERPE; details: 80 g/ha, visual assessment about 3 weeks after treatment
Summary of the method: as §1

Echinochloa crus-galli [7] = test: Pre-emergence herbicidal action against ECHCG; details: visual score after 3 weeks vs untreated controls
Summary of the method: as §2

Echinochloa crus-galli [8] = test: Post-emergence herbicidal action against ECHCG; details: visual assessment about 3 weeks after treatment
Summary of the method: as §1

Abutilon theophrasti [9] = test: Pre-emergence herbicidal action against ABUTH; details: visual score after 3 weeks vs untreated controls
Summary of the method: as §2

Setaria viridis [10] = test: Pre-emergence herbicidal action against SETVI; details: 320 g/ha
Summary of the method: as §2

Cyperus esculentus [11] = test: Post-emergence herbicidal action against CYPES; details: visual assessment about 3 weeks after treatment
Description: (§3) Seeds of monocotyledonous and dicotyledonous weed and crop plants are laid out in sandy loam soil in wood-fiber pots, covered with soil and cultivated in a greenhouse under good growth conditions. 2 to 3 weeks after sowing, the test plants are treated at the one-leaf stage. The compounds of the invention, formulated in the form of wettable powders (WP) or as emulsion concentrates (EC), are then sprayed onto the green parts of the plants in the form of an aqueous suspension or emulsion at a water application rate equivalent to 600 to 800 l/ha, with addition of 0.2% wetting agent. After the test plants have been left to stand in the greenhouse under optimal growth conditions for about 3 weeks, the action of the preparations is assessed visually in comparison to untreated controls (herbicidal action in percent (%): 100% activity=the plants have died, 0% activity=like control plants). […] The tables below illustrate, in an illustrative manner, the post-emergence herbicidal action of the compounds of the invention, the herbicidal activity being stated in percent.

Abutilon theophrasti [12] = test: Post-emergence herbicidal action against ABUTH
Summary of the method: as §1

Alopecurus myosuroides [13] = test: Pre-emergence herbicidal action against ALOMY; details: 320 g/ha; visual score after 3 weeks vs untreated controls
Summary of the method: as §2

Matricaria inodora [14] = test: Pre-emergence herbicidal action against MATIN; details: visual score after 3 weeks vs untreated controls
Summary of the method: as §2

Matricaria inodora [15] = test: Post-emergence herbicidal action against MATIN; details: 80 g/ha, visual assessment about 3 weeks after treatment
Summary of the method: as §1

Pharbitis purpurea [16] = test: Post-emergence herbicidal action against PHBPU; details: visual assessment about 3 weeks after treatment
Summary of the method: as §1

Amaranthus retroflexus [17] = test: Pre-emergence herbicidal action against AMARE; details: visual score after 3 weeks vs untreated controls
Summary of the method: as §2

Polygonum convolvulus [18] = test: Post-emergence herbicidal action against POLCO; details: visual assessment about 3 weeks after treatment
Description: as §3

Alopecurus myosuroides [19] = test: Post-emergence herbicidal action against ALOMY; details: 80 g/ha
Summary of the method: as §1

Avena fatua [20] = test: Post-emergence herbicidal action against AVEFA; details: 80 g/ha, visual assessment about 3 weeks after treatment
Summary of the method: as §1

Viola tricolor [21] = test: Post-emergence herbicidal action against VIOTR; details: 80 g/ha
Summary of the method: as §1

Veronica persica [22] = test: Pre-emergence herbicidal action against VERPE; details: 320 g/ha
Summary of the method: as §2

Amaranthus retroflexus [23] = test: Post-emergence herbicidal action against AMARE; details: visual assessment about 3 weeks after treatment
Summary of the method: as §1

Avena fatua [24] = test: Pre-emergence herbicidal action against AVEFA; details: 320 g/ha; visual score after 3 weeks vs untreated controls
Summary of the method: as §2

Stellaria media [25] = test: Post-emergence herbicidal action against STEME; details: visual assessment about 3 weeks after treatment
Summary of the method: as §1

Viola tricolor [26] = test: Pre-emergence herbicidal action against VIOTR
Summary of the method: as §2

CCCn1nnnc1NC(=O)c1ccc(C(F)(F)F)c(C(=O)N2CCCC2)c1Cl [Example 3-152]
100%: Post-emergence action against SETVI in % (Setaria viridis [1]) | Pre-emergence action against STEME (Stellaria media [2]; 20 g/ha) | Pre-emergence action against STEME (Stellaria media [2]; 80 g/ha) | Pre-emergence action against STEME (Stellaria media [2]; 320 g/ha) | Pre-emergence action against PHBPU (Pharbitis purpurea [4]) | Pre-emergence action against ECHCG (Echinochloa crus-galli [7]; 320 g/ha) | Post-emergence action against ECHCG in % (Echinochloa crus-galli [8]; 80 g/ha) | Pre-emergence action against ABUTH (Abutilon theophrasti [9]; 20 g/ha) | Pre-emergence action against ABUTH (Abutilon theophrasti [9]; 80 g/ha) | Pre-emergence action against ABUTH (Abutilon theophrasti [9]; Dosage column 320 g/ha (heading prints 3200 g/ha)) | Pre-emergence action against SETVI (Setaria viridis [10]) | Post-emergence action against ABUTH (Abutilon theophrasti [12]; 20 g/ha) | Post-emergence action against ABUTH (Abutilon theophrasti [12]; 80 g/ha) | Pre-emergence action against MATIN (Matricaria inodora [14]; 80 g/ha) | Pre-emergence action against MATIN (Matricaria inodora [14]; 320 g/ha) | Post-emergence action against PHBPU in % (Pharbitis purpurea [16]; 80 g/ha) | Pre-emergence action against AMARE (Amaranthus retroflexus [17]; 20 g/ha) | Pre-emergence action against AMARE (Amaranthus retroflexus [17]; 80 g/ha) | Pre-emergence action against AMARE (Amaranthus retroflexus [17]; 320 g/ha) | Post-emergence action against AVEFA in % (Avena fatua [20]) | Pre-emergence action against VERPE (Veronica persica [22]) | Post-emergence action against AMARE in % (Amaranthus retroflexus [23]; 5 g/ha) | Post-emergence action against AMARE in % (Amaranthus retroflexus [23]; 20 g/ha) | Post-emergence action against AMARE in % (Amaranthus retroflexus [23]; 80 g/ha) | Pre-emergence action against AVEFA (Avena fatua [24])
90%: Pre-emergence action against POLCO (Polygonum convolvulus [3]; 320 g/ha) | Pre-emergence action against CYPES (Cyperus esculentus [5]; 320 g/ha) | Post-emergence action against ABUTH (Abutilon theophrasti [12]; 5 g/ha) | Post-emergence action against MATIN in % (Matricaria inodora [15]) | Post-emergence action against POLCO in % (Polygonum convolvulus [18]; 20 g/ha) | Post-emergence action against POLCO in % (Polygonum convolvulus [18]; 80 g/ha) | Post-emergence action against STEME in % (Stellaria media [25]; 80 g/ha) | Pre-emergence action against VIOTR (Viola tricolor [26]; 80 g/ha) | Pre-emergence action against VIOTR (Viola tricolor [26]; 320 g/ha)
80%: Pre-emergence action against POLCO (Polygonum convolvulus [3]; 80 g/ha) | Pre-emergence action against CYPES (Cyperus esculentus [5]; 80 g/ha) | Post-emergence action against VERPE in % (Veronica persica [6]) | Pre-emergence action against ECHCG (Echinochloa crus-galli [7]; 80 g/ha) | Post-emergence action against ECHCG in % (Echinochloa crus-galli [8]; 20 g/ha) | Post-emergence action against CYPES in % (Cyperus esculentus [11]; 20 g/ha) | Post-emergence action against CYPES in % (Cyperus esculentus [11]; 80 g/ha) | Pre-emergence action against ALOMY (Alopecurus myosuroides [13]) | Pre-emergence action against MATIN (Matricaria inodora [14]; 20 g/ha) | Post-emergence action against PHBPU in % (Pharbitis purpurea [16]; 20 g/ha) | Post-emergence action against ALOMY (Alopecurus myosuroides [19]) | Post-emergence action against VIOTR in % (Viola tricolor [21]) | Post-emergence action against STEME in % (Stellaria media [25]; 5 g/ha) | Post-emergence action against STEME in % (Stellaria media [25]; 20 g/ha)

Source: patent US12599136B2, “Substituted isophthalic acid diamides and their use as herbicides” (Bayer Aktiengesellschaft, priority 2020, dated 2026)
